From US5128362A, “1-aminomethyl-1,2,3,4-tetrahydronaphthalenes” (Abbott Laboratories, priority 1990, dated 1992)
Where a name gives a salt, the structure may show the parent alone.

Target: T1, alpha 2 receptor (Rattus norvegicus, UniProt P22909)
T1 construct: rat cerebral cortices; from tissue; host or cells: rat cerebral cortices
T1 sequence (P22909 1-465): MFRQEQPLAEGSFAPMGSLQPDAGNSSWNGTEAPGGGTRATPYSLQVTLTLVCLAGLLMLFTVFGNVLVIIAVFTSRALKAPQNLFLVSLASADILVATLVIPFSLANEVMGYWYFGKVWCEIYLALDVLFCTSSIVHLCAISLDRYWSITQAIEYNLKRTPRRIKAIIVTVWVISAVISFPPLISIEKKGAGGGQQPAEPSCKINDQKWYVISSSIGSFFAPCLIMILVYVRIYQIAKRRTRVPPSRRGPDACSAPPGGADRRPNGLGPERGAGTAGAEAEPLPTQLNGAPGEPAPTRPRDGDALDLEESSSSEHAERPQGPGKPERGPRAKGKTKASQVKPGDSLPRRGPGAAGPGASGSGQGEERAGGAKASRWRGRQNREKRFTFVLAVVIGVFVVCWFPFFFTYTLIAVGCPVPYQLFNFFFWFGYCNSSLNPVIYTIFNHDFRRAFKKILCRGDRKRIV
Test: Radioligand binding, [3H]rauwolscine, rat cerebral cortices
Details: not given
Method: (§1) The compounds were assessed for alpha-adrenergic receptor subtype selectivity by use of radioligand binding techniques as described previously (DeBernardis et. al. J. Med. Chem. 28, 1398 (1985)).

SMILES | Ki [nM]
COc1ccc2c(c1)CCCC2CN(C)CCC1CCCC1 (centres unmarked) [Example 6f, 1-((N-methylamino)methyl-N-(2-(cyclopentyl)ethyl))-6-methoxy tetralin hydrochloride] | 6.5

Same assay, conditions: read-out: Ki alpha-2

Ki [nM] | SMILES
0.8 | COc1ccc2c(c1)CCCC2CN(C)CCc1cccs1 (centres unmarked) [Example 5, 1-((N-Methylamino)methyl-N-(2-(2-thienyl)ethyl))-6-methoxy tetralin methanesulfonate]
5 | COc1ccc2c(c1)CCCC2CN(C)CCc1cccc(F)c1 (centres unmarked) [Example 6b, 1-((N-methylamino)methyl-N-(2-(m-fluorophenyl)ethyl))-6-methoxy tetralin hydrochloride]
1.5 | COc1ccc2c(c1)CCCC2CN(C)CCc1ccsc1 (centres unmarked) [Example 6d, 1-((N-methylamino)methyl-N-(2-(3-thienyl)ethyl))-6-methoxy tetralin hydrochloride]
3.5 | COc1ccc2c(c1)CCCC2CN(C)CCC1CCCS1 (centres unmarked) [Example 6h, 1-((N-methylamino)methyl-N-(2-(2-tetrahydrothienyl)ethyl)) 6-methoxy tetralin hydrochloride]
1.6 | CN(CCc1cccs1)CC1CCCc2cc(O)ccc21 (centres unmarked) [Example 7, 1-((N-Methylamino)methyl-N-(2-(2-thienyl)ethyl))-6-hydroxy tetralin hydrochloride]
5 | COc1ccc2c(c1)CCCC2CN(C)CCc1cccn1C (centres unmarked) [Example 12, 1-((N-Methylamino)methyl-N-(2-(N-methyl-2-pyrrolyl)-ethyl))-6-methoxy tetralin fumarate]
1.3 | CN(CCc1cccs1)CC1CCCc2ccccc21 (centres unmarked) [Example 22, 1-((N-Methylamino)methyl-N-(2-(2-thienyl)ethyl)) tetralin hydrochloride]
1.7 | CN(CCc1cccs1)CC1CCCc2c1ccc1c2OCO1 (centres unmarked) [Example 23, 1-((N-Methylamino)methyl-N-(2-(2-thienyl)ethyl))-5,6-methylenedioxy tetralin hydrochloride]
0.6 | COc1cc2c(c(OC)c1)C(CN(C)CCc1cccs1)CCC2 (centres unmarked) [Example 26, 1-((N-Methylamino)methyl-N-(2-(2-thienyl)ethyl))-6,8-dimethoxy tetralin hydrochloride]
2 | COc1ccc2c(c1)C(CN(C)CCc1cccs1)CCC2 (centres unmarked) [Example 27, 1-((N-Methylamino)methyl-N-(2-(2-thienyl)ethyl))-7-methoxy tetralin hydrochloride]
4 | CN(CCc1cccs1)CC1CCCc2c1ccc1c2OCCO1 (centres unmarked) [Example 30, 1-((N-Methylamino)methyl-N-(2-(2-thienyl)ethyl))-5,6-ethylenedioxy tetralin hydrochloride]
2.6 | Cc1cc(O)c(O)c2c1C(CN(C)CCc1cccc(F)c1)CCC2 (centres unmarked) [Example 34, 1-((N-Methylamino)methyl-N-(2-(m-fluorophenyl)ethyl))-5,6-dihydroxy-8-methyl tetralin hydrobromide]
6.9 | COc1ccc(C)c2c1CCCC2CN(C)CCc1cccs1 (centres unmarked) [Example 36, 1-((N-Methylamino)methyl-N-(2-(2-thienyl)ethyl))-5-methoxy-8-methyl tetralin hydrochloride]
3.7 | COc1ccc2c(c1)CCC2CN(C)CCc1cccs1 (centres unmarked) [Example 37, 1-((N-Methylamino)methyl-N-(2-(2-thienyl)ethyl))-5-methoxy indane hydrochloride]
2.9 | CCN(CCc1cccs1)CC1CCCc2cc(OC)ccc21 (centres unmarked) [Example 41, 1-((N-Ethylamino)methyl-N-(2-(2-thienyl)ethyl))-6-methoxy tetralin hydrochloride]
6.6 | CCN(CCc1cccc(F)c1)CC1CCCc2cc(OC)ccc21 (centres unmarked) [Example 42, 1-((N-Ethylamino)methyl-N-(2-(m-fluorophenyl)ethyl))-6-methoxy tetralin hydrochloride]
6 | CCN(CCc1ccco1)CC1CCCc2cc(OC)ccc21 (centres unmarked) [Example 43, 1-((N-Ethylamino)methyl-N-(2-(2-furyl)ethyl))-6-methoxy tetralin hydrochloride]
5.6 | CCN(CCc1ccsc1)CC1CCCc2cc(OC)ccc21 (centres unmarked) [Example 44, 1-((N-Ethylamino)methyl-N-(2-(3-thienyl)ethyl))-6-methoxy tetralin hydrochloride]
10 | CN(CCc1cccs1)CC1CCCc2cc(Cl)ccc21 (centres unmarked) [Example 49, 1-((N-Methylamino)methyl-N-(2-(2-thienyl)ethyl))-6-chloro tetralin hydrochloride]
18 | CCCN(CCc1cccs1)CC1CCCc2cc(OC)ccc21 (centres unmarked) [Example 58, 1-((N-Propylamino)methyl)-N-(2-(2-thienyl)ethyl))-6-methoxy tetralin hydrochloride]

Ki [nM] | SMILES
6 | COc1ccc2c(c1)CCCC2CN(C)CCc1cccc(N)c1 (centres unmarked) [Example 67, 1-((N-Methylamino)methyl-N-(2-(m-aminophenyl)ethyl))-6-methoxy tetralin dihydrochloride]
6 | CN(CCc1cccc(N)c1)CC1CCCc2cc(O)ccc21 (centres unmarked) [Example 68, 1-((N-Methylamino)methyl-N-(2-(m-aminophenyl)ethyl))-6-hydroxy tetralin dihydrobromide]
13 | CCOc1ccc2c(c1)CCCC2CN(C)CCc1cccc(N)c1 (centres unmarked) [Example 69, 1-((N-Methylamino)methyl-N-(2-(m-aminophenyl)ethyl))-6-ethoxy tetralin dihydrochloride]
5 | CN(CCc1cccc(F)c1)CC1CCCc2ccccc21 (centres unmarked) [Example 70, 1-((N-Methylamino)methyl-N-(2-(m-fluorophenyl)ethyl))-tetralin hydrochloride]
4 | CN(CCc1cccc(O)c1)CC1CCCc2cc(O)ccc21 (centres unmarked) [Example 82, 1-((N-Methylamino)methyl-N-(2-(m-hydroxyphenyl)ethyl))-6-hydroxy tetralin hydrochloride]
8 | COc1ccc2c(c1)CCCC2CN(C)CCc1cccc(O)c1 (centres unmarked) [Example 83, 1-((N-Methylamino)methyl-N-(2-(m-hydroxyphenyl)ethyl))-6-methoxy tetralin hydrochloride]
1.5 | CN(CCc1cccc(F)c1)CC1CCCc2c1ccc(O)c2O (centres unmarked) [Example 85, 1-((N-Methylamino)methyl-N-(2-(m-fluorophenyl)ethyl))-5,6-dihydroxy tetralin hydrochloride]
3 | COc1ccc2c(c1OC)CCCC2CN(C)CCc1cccs1 (centres unmarked) [Example 86, 1-((N-Methylamino)methyl-N-(2-(2-thienyl)ethyl))-5,6-dimethoxy tetralin hydrochloride]
1.6 | CN(CCc1cccs1)CC1CCCc2c1ccc(O)c2O (centres unmarked) [Example 87, 1-((N-Methylamino)methyl-N-(2-(2-thienyl)ethyl))-5,6-dihydroxy tetralin hydrochloride]
2 | CN(CCc1ccccc1)CC1CCCc2ccccc21 (centres unmarked) [Example 88, 1-((N-Methylamino)methyl-N-(2-phenethyl)) tetralin hydrochloride]
5.7 | CN(CCc1ccccc1)CC1CCCc2cc(N)ccc21 (centres unmarked) [Example 114, 1-((N-Methylaminomethyl-N-(2-phenylethyl))-6-aminotetralindihydrochloride]
3 | CN(CCc1cccs1)CC1CCCc2c1ccc(O)c2I (centres unmarked) [Example 115, 1-((N-Methylamino)methyl-N-(2-(2-thienyl)ethyl))-5-iodo-6-hydroxy tetralin hydrochloride]
8 | COc1cc2c(cc1C)C(CN(C)CCc1ccco1)CCC2 (centres unmarked) [Example 128, 1-((N-Methylamino)methyl-N-(2-(2-furyl)ethyl))-methoxy-7-methyl tetralin hydrochloride]
4.8 | COc1cc2c(cc1F)C(CN(C)CCc1ccco1)CCC2 (centres unmarked) [Example 141, 1-((N-methylamino)methyl-N-(2-(2-furyl)ethyl))-6-methoxy-7-fluoro tetralin methanesulfonate]
1.2 | c1csc(C2CCN(CC3CCCc4c3ccc3c4OCO3)C2)c1 (centres unmarked) [Example 144, 5,6-Methylenedioxy-1-(3-(2-thienyl)pyrrolidino-1-methyl) tetralin methanesulfonate]
3.7 | CCN(CCc1cccs1)CC1CCCc2c1ccc1c2OCO1 (centres unmarked) [Example 164, 1-(N-Ethylamino)methyl-N-(2-(2-thienyl)ethyl))-5,6-methylenedioxy tetralin hydrochloride]
3.5 | CCN(CCc1cccc(F)c1)CC1CCCc2c1ccc1c2OCO1 (centres unmarked) [Example 165, 1-((N-Ethylamino)methyl-N-(2-m-fluorophenethyl))-5,6-methylenedioxy tetralin hydrochloride]
4.5 | CN(CCc1cccc(F)c1)CC1CCCc2c1ccc1c2OCO1 (centres unmarked) [Example 166, 1-((N-Methylamino)methyl-N-(2-m-fluorophenethyl))-5,6-methylenedioxy tetralin methanesulfonate]
6.6 | CCN(CCc1cccs1)CC1CCCc2c1ccc1c2OCCO1 (centres unmarked) [Example 168, 1-((N-Ethylamino)methyl-N-(2-(2-thienyl)ethyl))-5,6-ethylenedioxy tetralin hydrochloride]
0.6 | Fc1ccccc1C1CCN(CC2CCCc3c2ccc2c3OCO2)C1 (centres unmarked) [Example 176a, 5.6-Methylenedioxy-1-(3-(o-fluorophenyl)pyrrolidino-1-methyl) tetralin methanesulfonate]

System: alpha 2 receptor
Test: as above
Details: Ki alpha 1/Ki alpha-2
Method: as §1

alpha-2 - Selectivity Ki alpha 1/Ki alpha-2 | SMILES
430 | COc1ccc2c(c1)CCCC2CN(C)CCC1CCCS1 (centres unmarked) [Example 6h, 1-((N-methylamino)methyl-N-(2-(2-tetrahydrothienyl)ethyl)) 6-methoxy tetralin hydrochloride]
95 | COc1ccc(C)c2c1CCCC2CN(C)CCc1cccs1 (centres unmarked) [Example 36, 1-((N-Methylamino)methyl-N-(2-(2-thienyl)ethyl))-5-methoxy-8-methyl tetralin hydrochloride]
98 | CCOc1ccc2c(c1)CCCC2CN(C)CCc1cccc(N)c1 (centres unmarked) [Example 69, 1-((N-Methylamino)methyl-N-(2-(m-aminophenyl)ethyl))-6-ethoxy tetralin dihydrochloride]
